Patent publication US9474788B2, “Methods for the reactivation of latent HIV using cytosine methylation inhibitors and NF-KB activators” (priority 2010, dated 2016)
Like-named read-outs stand apart in the source and are kept apart here.

What was measured:
Assay type in all cases: cell-based
[1] = tested on: latent HIV-1
Description: (§1) Jurkat and J-Lat cells were cultured in RPMI (Invitrogen) with 5% FBS (Gemini Bio-Products) and 5% Fetalplex (Gemini Bio-Products). For analysis of virus reactivation by flow cytometry, aza-CdR (Sigma) and TNF-α (Biosource) treatments were for 24 h, after which medium was replaced. Reactivation was assayed after an additional 48 h. For chromatin immunoprecipitation (ChIP) and bisulfite-mediated methylcytosine mapping, cells were treated for 30 h with aza-CdR. For cycloheximide experiments, cells were treated for 24 hours, either with or without 40 ng/ml cycloheximide.
J-Lat cells were transfected by electroporation using Kit R and program O-28 (Amaxa Biosystems). HIV-1 reactivation was assayed by flow cytometry four days post-transfection. […] Supernatant was harvested 48 h post-transfection and frozen at −80° C. in aliquots. Aliquots were thawed, diluted 1:160, and used to infect Jurkat T cells overnight at a multiplicity of 0.1 infectious units per cell with 2 ml supernatant per 1 million cells. Three days post-infection, GFP-negative and -positive cell populations were isolated by fluorescence-activated cell sorting (FACS). […] Cells were cotransfected with a plasmid encoding the tomato fluorescent protein and either methylated or unmethylated pEGFP-N1, and the tomato-positive population was analyzed for GFP expression. For measurement of J-Lat activation, cells were infected with undiluted virus and analyzed by flow cytometry 2 days post-infection.
Cell fluorescence was measured with the fluorescence activated cell sorter FACSCalibur or LSRII (BD Biosciences). Cell sorting was performed with the fluorescence activated cell sorting (FACS) Vantage DiVa (BD Biosciences). To phenotype CD4^+ T cells, the cells were stained with the following monoclonal antibodies (mAbs): phycoerythrin-conjugated (PE)—anti-CD4, TC—anti-CD45RA, or PE—anti-CXCR4 (Caltag). Flow cytometry and sorting data were analyzed with FlowJo software (Treestar) or Cellquest (BD Biosciences), in the case of primary cells. Analysis was restricted to the live population, as defined by the forward versus side scatter profile. Flowjo transforms fluorescence plots to a linear scale at the origin, permitting intelligible display of cells with low fluorescence.

[2] = tested on: latent HIV-1; assay: Latent HIV-1 reactivation in a polyclonal population of latently infected Jurkat T cells, GFP by flow cytometry; conditions: about two months after infection
Description: as §1
J-Lat cells were transfected by electroporation using Kit R and program O-28 (Amaxa Biosystems). […] Three days post-infection, GFP-negative and -positive cell populations were isolated by fluorescence-activated cell sorting (FACS). […] Cells were cotransfected with a plasmid encoding the tomato fluorescent protein and either methylated or unmethylated pEGFP-N1, and the tomato-positive population was analyzed for GFP expression. For measurement of J-Lat activation, cells were infected with undiluted virus and analyzed by flow cytometry 2 days post-infection.
Cell fluorescence was measured with the fluorescence activated cell sorter FACSCalibur or LSRII (BD Biosciences). Cell sorting was performed with the fluorescence activated cell sorting (FACS) Vantage DiVa (BD Biosciences). […]

[3] = tested on: HIV-1 CpG islands; assay: Bisulfite-mediated methylcytosine mapping of HIV-1 in J-Lat 6.3; conditions: depending on the CpG analyzed, 30 h treatment
Description: as §1
Sodium bisulfite treatment was performed according to the Pikaard protocol (on the internet at http://followed by www(dot)biology(dot)wustl(dot)edu/pikaard/PDFs and protocol files/bisulfite sequencing(dot)pdf) with minor modifications. Jurkat T cell DNA was digested overnight with Pst I and purified with the Qiaquick PCR Purification Kit (Qiagen). Bisulfite-treated DNA was amplified in nested PCR reactions with the following reaction conditions: denature (95° C., 5 minutes), cycle 35 times (95° C., 30 seconds then 60° C., 60 seconds), and extend (60° C., 7 minutes). […] Nucleotide sequence was determined of at least nine cloned inserts using the universal M13 reverse primer. The efficiency of sodium bisulfite conversion was calculated using the Quantification Tool for Methylation Analysis (QUMA) software.

[4] = tested on: HIV-1 CpG island 2; assay: Chromatin immunoprecipitation of factor recruitment to the HIV-1 provirus in J-Lat 6.3
Description: as §1
ChIP was performed as described previously with modifications. J-Lat 6.3 cells Cells were diluted to 5×10^5 per ml, lysed, and sonicated (Model 500 Ultrasonic Dismembranator, Fisher Scientific). Lysates were incubated overnight with 5 μg of antibody against MBD2 (Upstate Cell Signaling Solutions cat. 07-198), HDAC2 (Santa Cruz Biotechnology cat. sc-7899) or Sp1 (Santa Cruz Biotechnology cat. sc-59). Immune complexes were recovered by incubation for 1 h with protein A agarose beads (Invitrogen). Immunoprecipitated DNA was quantified by quantitative PCR using the 7900HT Sequence Detection System (Applied Biosystems) and 2× Hot Sybr real time PCR kit (Molecular Cloning Laboratories). Negative control DNA was assayed using 5USBACT and 3USBACT as primers, CpG island 1 was assayed using oSK92 (5′-[…]-3′) (SEQ ID NO:23) and oSK93 (5′-[…]-3′) (SEQ ID NO:24) as primers, and CpG island 2 was assayed using oSK89 (5′-[…]-3′) (SEQ ID NO:25) and oSK90 (5′-[…]-3′) (SEQ ID NO:26) as primers. SDS 2.3 software (Applied Biosystems) was used to analyze precipitated DNA relative to input and to confirm the specificity of each PCR reaction by melting curve analysis.

[5] = tested on: HIV-1 transcription; assay: Reverse transcription and quantitative PCR of HIV-1 mRNA in J-Lat cells; conditions: 24 hours, 40 ng/ml cycloheximide
Description: as §1
J-Lat cells were transfected with short interfering RNAs (siRNAs) corresponding to the MBD2 mRNA or non-targeting control short interfering RNAs (siRNAs) (siGENOME SMARTpool or siCONTROL pool, Dharmacon) by electroporation using Kit R and program O-28 (Amaxa Biosystems). […] Quantitative PCR was performed with the 7900HT Sequence Detection System (Applied Biosystems) and the 2× Hot Sybr real time PCR kit (Molecular Cloning Laboratories), with each PCR reaction receiving 1/20 of the reverse transcription. […] SDS 2.3 software (Applied Biosystems) was used to quantify each cDNA relative to cyclophilin A and to confirm the specificity of each PCR reaction by melting curve analysis.

| Molecule | Reactivation of latent HIV-1, MFI, fold greater than PBS control ([1]; J-Lat cell line 6.3) | Reactivation of latent HIV-1, MFI, fold greater than PBS control ([1]; J-Lat cell line 8.4) | Reactivation of latent HIV-1, MFI, fold greater than PBS control ([1]; J-Lat cell line 9.2) | Reactivation of latent HIV-1, MFI, fold greater than PBS control ([1]; J-Lat cell line 15.4) | Effect on HIV-1 gene expression (mean fluorescence intensity or proportion of GFP-positive cells) ([1]; J-Lat lines 6.3, 8.4, 9.2 and 15.4) | Proportion of cells with active virus, fold greater [2] | Decrease in methylation [3] | HDAC2 recruitment to CpG island 2 [4] | MBD2 recruitment to CpG island 2 [4] | Sp1 recruitment to CpG island 2 [4] | HIV-1 transcription in the presence of cycloheximide [5] | GFP expression after treatment of J-Lat cells with TNF-α ([1]; 40 ng/ml cycloheximide) | Reactivation of latent virus ([1]; J-Lat A2 (HIV-derived vector encoding only viral promoter and Tat)) |
| --- | --- | --- | --- | --- | --- | --- | --- | --- | --- | --- | --- | --- | --- |
| Nc1ncn([C@H]2C[C@H](O)[C@@H](CO)O2)c(=O)n1 [Aza-CdR, 5-aza-2′ deoxycytidine] | 1.8 fold | 1.6 fold | 1.1 fold | 1 fold | little effect | two-fold greater proportion of cells with active virus | ≤ 50% | lost | eliminated | increased Sp1 recruitment | still induced HIV-1 transcription |  |  |
| C[C@@H]1C[C@@H]([C@H](O)CC2CC(=O)NC(=O)C2)C(=O)[C@@H](C)C1 [Cycloheximide, cycloheximide] |  |  |  |  |  |  |  |  |  |  |  | inhibition of GFP expression |  |
| TNF-a | 7.1 fold | 2.5 fold | 2.3 fold | 1.7 fold |  | 1.5 fold |  |  |  |  |  |  | reactivated the majority of latent virus |
